In patent publication US8648078B2, “PLK inhibitor salts” (Nerviano Medical Sciences S.R.L., priority 2009, dated 2014):

Assays:
Assay type in all cases: physicochemical
[1] = Aqueous solubility of compound 937 salts and free base (excess solid stirred in water, filtered, HPLC); settings: thermodynamic from solid, RT, stirred 4 hours, excess solid (target 10 mg/ml)
From the text: The obtained preparations have been filtered and analyzed by means of HPLC.

[2] = Solubility of compound 937 in early formulation vehicles / as in situ salt; settings: aqueous with cosolvent or surfactant or cyclodextrin; in 10% polysorbate 80 in 5% dextrose solution
[3] = Hygroscopicity test by Dynamic Vapour Sorption (DVS); settings: for Water uptake: 25° C.
Procedure: The apparatus is a “controlled atmosphere microbalance” where the weighed sample is exposed to programmed variations of the relative humidity (RH) at a constant and controlled temperature. The measured parameters (weight, time and RH), reported in Excel worksheets, allow obtaining hygroscopicity curves over the tested RH range. Sorption/desorption cycles between 0% and 90% RH can be performed at controlled temperature of 25° C. Progressive variations of RH are of 10%; they are operated by the software at the equilibration of the sample weight. This condition can be defined at a constant rate of percent weight variation e.g. 0.005%/min. The experimental results are reported both as in the DVS Isotherm Reports and Isotherm Plots.

[4] = Solid state stability on storage at stressed temperature and humidity; settings: storage at 40° C./75% RH

## CN1CCN(c2ccc(OC(F)(F)F)c(Nc3ncc4c(n3)-c3c(c(C(N)=O)nn3CCO)CC4)c2)CC1 [compound 937, 1-(2-hydroxy-ethyl)-8-[5-(4-methyl-piperazin-1-yl)-2-trifluoromethoxy-phenylamino]-4,5-dihydro-1H-pyrazolo[4,3-h]quinazoline-3-carboxamide]
[1]
  solubility at 4 h: < 100 µg/mL
[2]
  solubility: ~4000 µg/mL

## CN1CCN(c2ccc(OC(F)(F)F)c(Nc3ncc4c(n3)-c3c(c(C(N)=O)nn3CCO)CC4)c2)CC1.O=C(O)/C=C/C(=O)O [compound 937 fumarate salt]
[3]; 90% RH
  Water uptake: 1.6%
[3]; DVS sorption ramp, 0.0% RH
  Water uptake: 0.0%
[3]; DVS sorption ramp, 10.0% RH
  Water uptake: 0.1%
[3]; DVS sorption ramp, 20.0% RH
  Water uptake: 0.3%
[3]; DVS sorption ramp, 30.0% RH
  Water uptake: 0.4%
[3]; DVS sorption ramp, 40.0% RH
  Water uptake: 0.6%
[3]; DVS sorption ramp, 50.0% RH
  Water uptake: 0.9%
[3]; DVS sorption ramp, 60.0% RH
  Water uptake: 1.2%
[3]; DVS sorption ramp, 70.0% RH
  Water uptake: 1.4%
[3]; DVS sorption ramp, 80.0% RH
  Water uptake: 1.5%

## CN1CCN(c2ccc(OC(F)(F)F)c(Nc3ncc4c(n3)-c3c(c(C(N)=O)nn3CCO)CC4)c2)CC1.O=C(O)CCC(=O)O [compound 937 succinate salt form II]
[4]
  solid form stability (in words): stable

## CN1CCN(c2ccc(OC(F)(F)F)c(Nc3ncc4c(n3)-c3c(c(C(N)=O)nn3CCO)CC4)c2)CC1.O=C(O)/C=C\C(=O)O [compound 937 maleate salt form II]
[3]
  hygroscopicity (in words): moderately hygroscopic
[4]
  solid form stability (in words): undergoes conversion to form I

## CN1CCN(c2ccc(OC(F)(F)F)c(Nc3ncc4c(n3)-c3c(c(C(N)=O)nn3CCO)CC4)c2)CC1.O=C(O)C[C@H](O)C(=O)O [compound 937 L-malate salt]
[3]
  hygroscopicity (in words): moderately hygroscopic
[3]; 90% RH
  Water uptake: about 4.7%

## CN1CCN(c2ccc(OC(F)(F)F)c(Nc3ncc4c(n3)-c3c(c(C(N)=O)nn3CCO)CC4)c2)CC1.O=C(O)C(O)C(O)C(=O)O [compound 937 L-tartrate salt]
[3]
  hygroscopicity (in words): moderately hygroscopic
[3]; 90% RH
  Water uptake: ~5.8%
